Assay results as given in ChEMBL document CHEMBL5723582, “Data for DCP probe T-10430” (2024).

What was measured:
Details in all cases: Compound concentration 1.0 uM
[1] = target: G-protein coupled receptor 61 (Homo sapiens) (UniProt Q9BZJ8); assay: RLU of GPR61 at 1.0 µM in the […] PRESTO-Tango GPCRome screen
[2] = target: D(4) dopamine receptor (Homo sapiens) (UniProt P21917); assay: RLU of DRD4 at 1.0 µM in the […] PRESTO-Tango GPCRome screen
[3] = target: Sphingosine 1-phosphate receptor 4 (Homo sapiens) (UniProt O95977); assay: RLU of S1PR4 at 1.0 µM in the […] PRESTO-Tango GPCRome screen
[4] = target: Somatostatin receptor type 5 (Homo sapiens) (UniProt P35346); assay: RLU of SSTR5 at 1.0 µM in the […] PRESTO-Tango GPCRome screen
Chain of Somatostatin receptor type 5 (Homo sapiens) (P35346 whole entry): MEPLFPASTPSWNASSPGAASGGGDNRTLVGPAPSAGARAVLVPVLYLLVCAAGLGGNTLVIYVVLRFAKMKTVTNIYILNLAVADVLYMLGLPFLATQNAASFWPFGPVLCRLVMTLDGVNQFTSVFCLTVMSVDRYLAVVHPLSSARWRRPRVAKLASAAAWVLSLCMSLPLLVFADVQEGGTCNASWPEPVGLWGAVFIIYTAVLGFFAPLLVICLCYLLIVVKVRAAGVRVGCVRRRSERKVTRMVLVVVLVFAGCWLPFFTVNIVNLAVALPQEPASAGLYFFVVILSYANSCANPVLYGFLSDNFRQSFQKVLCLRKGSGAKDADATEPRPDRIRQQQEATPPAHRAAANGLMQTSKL

[5] = target: Adhesion G protein-coupled receptor F5 (Homo sapiens) (UniProt Q8IZF2); assay: RLU of GPR116 at 1.0 µM in the […] PRESTO-Tango GPCRome screen
[6] = target: Probable G-protein coupled receptor 153 (Homo sapiens) (UniProt Q6NV75); assay: RLU of GPR153 at 1.0 µM in the […] PRESTO-Tango GPCRome screen
[7] = target: Neuropeptide FF receptor 2 (Homo sapiens) (UniProt Q9Y5X5); assay: RLU of NPFF2 at 1.0 µM in the […] PRESTO-Tango GPCRome screen
[8] = target: D(1B) dopamine receptor (Homo sapiens) (UniProt P21918); assay: RLU of DRD5 at 1.0 µM in the […] PRESTO-Tango GPCRome screen
Chain of D(1B) dopamine receptor (Homo sapiens) (P21918 whole entry): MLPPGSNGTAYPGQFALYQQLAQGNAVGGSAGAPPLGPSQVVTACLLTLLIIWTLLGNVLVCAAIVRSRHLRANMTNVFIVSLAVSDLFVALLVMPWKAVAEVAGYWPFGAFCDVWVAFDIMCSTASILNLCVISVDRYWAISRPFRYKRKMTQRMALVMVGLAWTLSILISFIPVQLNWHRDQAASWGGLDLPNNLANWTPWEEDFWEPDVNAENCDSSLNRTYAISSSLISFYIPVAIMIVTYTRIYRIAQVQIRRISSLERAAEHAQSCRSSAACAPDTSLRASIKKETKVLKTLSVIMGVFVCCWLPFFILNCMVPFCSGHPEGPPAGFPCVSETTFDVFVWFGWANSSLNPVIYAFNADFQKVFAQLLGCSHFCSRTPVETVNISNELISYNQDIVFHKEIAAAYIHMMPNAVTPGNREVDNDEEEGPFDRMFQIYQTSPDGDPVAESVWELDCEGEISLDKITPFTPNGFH

[9] = target: Probable G-protein coupled receptor 75 (Homo sapiens) (UniProt O95800); assay: RLU of GPR75 at 1.0 µM in the […] PRESTO-Tango GPCRome screen
[10] = target: Adhesion G protein-coupled receptor A3 (Homo sapiens) (UniProt Q8IWK6); assay: RLU of GPR125 at 1.0 µM in the […] PRESTO-Tango GPCRome screen
[11] = target: Chemerin-like receptor 2 (Homo sapiens) (UniProt P46091); assay: RLU of GPR1 at 1.0 µM in the […] PRESTO-Tango GPCRome screen
Chain of Chemerin-like receptor 2 (Homo sapiens) (P46091 whole entry): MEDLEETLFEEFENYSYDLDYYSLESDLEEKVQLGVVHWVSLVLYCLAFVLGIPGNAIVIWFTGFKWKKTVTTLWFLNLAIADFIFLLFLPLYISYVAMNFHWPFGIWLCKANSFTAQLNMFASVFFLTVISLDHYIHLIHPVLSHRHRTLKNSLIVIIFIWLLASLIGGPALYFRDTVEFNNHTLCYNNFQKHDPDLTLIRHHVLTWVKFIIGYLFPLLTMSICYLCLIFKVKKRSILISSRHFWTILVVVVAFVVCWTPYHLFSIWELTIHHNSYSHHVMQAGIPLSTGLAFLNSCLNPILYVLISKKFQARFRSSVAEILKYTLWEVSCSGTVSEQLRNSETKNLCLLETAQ

[12] = target: Muscarinic acetylcholine receptor M3 (Homo sapiens) (UniProt P20309); assay: RLU of CHRM3 at 1.0 µM in the […] PRESTO-Tango GPCRome screen
[13] = target: Corticotropin-releasing factor receptor 2 (Homo sapiens) (UniProt Q13324); assay: RLU of CRHR2 at 1.0 µM in the […] PRESTO-Tango GPCRome screen
Chain of Corticotropin-releasing factor receptor 2 (Homo sapiens) (Q13324 whole entry): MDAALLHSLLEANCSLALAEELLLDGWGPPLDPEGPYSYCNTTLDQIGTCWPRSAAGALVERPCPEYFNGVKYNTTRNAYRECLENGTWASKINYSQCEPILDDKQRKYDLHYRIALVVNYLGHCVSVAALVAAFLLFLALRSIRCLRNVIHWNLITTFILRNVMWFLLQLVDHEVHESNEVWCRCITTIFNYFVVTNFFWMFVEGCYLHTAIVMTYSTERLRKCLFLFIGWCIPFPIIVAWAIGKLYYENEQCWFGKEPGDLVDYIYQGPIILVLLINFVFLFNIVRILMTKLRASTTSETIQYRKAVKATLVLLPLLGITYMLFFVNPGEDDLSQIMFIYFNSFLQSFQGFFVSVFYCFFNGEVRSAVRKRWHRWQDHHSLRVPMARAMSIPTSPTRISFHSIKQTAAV

[14] = target: C-C chemokine receptor type 5 (Homo sapiens) (UniProt P51681); assay: RLU of CCR5 at 1.0 µM in the […] PRESTO-Tango GPCRome screen
[15] = target: Melatonin receptor type 1A (Homo sapiens) (UniProt P48039); assay: RLU of MTNR1A at 1.0 µM in the […] PRESTO-Tango GPCRome screen
[16] = target: Trace amine-associated receptor 8 (Homo sapiens) (UniProt Q969N4); assay: RLU of TAAR8 at 1.0 µM in the […] PRESTO-Tango GPCRome screen
[17] = target: G-protein coupled receptor 52 (Homo sapiens) (UniProt Q9Y2T5); assay: RLU of GPR52 at 1.0 µM in the […] PRESTO-Tango GPCRome screen
Chain of G-protein coupled receptor 52 (Homo sapiens) (Q9Y2T5 whole entry): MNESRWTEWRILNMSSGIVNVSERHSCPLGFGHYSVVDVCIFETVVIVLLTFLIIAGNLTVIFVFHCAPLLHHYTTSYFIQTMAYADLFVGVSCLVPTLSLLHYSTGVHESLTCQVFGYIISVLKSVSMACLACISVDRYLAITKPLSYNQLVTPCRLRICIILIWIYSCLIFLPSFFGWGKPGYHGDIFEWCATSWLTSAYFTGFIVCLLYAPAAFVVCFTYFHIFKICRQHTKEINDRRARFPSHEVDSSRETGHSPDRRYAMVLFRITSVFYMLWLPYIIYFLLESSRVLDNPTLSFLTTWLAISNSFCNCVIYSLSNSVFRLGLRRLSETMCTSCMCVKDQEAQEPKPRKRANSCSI

[18] = target: Probable G-protein coupled receptor 142 (Homo sapiens) (UniProt Q7Z601); assay: RLU of GPR142 at 1.0 µM in the […] PRESTO-Tango GPCRome screen
[19] = target: Alpha-1D adrenergic receptor (Homo sapiens) (UniProt P25100); assay: RLU of ADRA1D at 1.0 µM in the […] PRESTO-Tango GPCRome screen
[20] = target: Adhesion G-protein coupled receptor G6 (Homo sapiens) (UniProt Q86SQ4); assay: RLU of GPR126 at 1.0 µM in the […] PRESTO-Tango GPCRome screen
[21] = target: Mas-related G-protein coupled receptor member E (Homo sapiens) (UniProt Q86SM8); assay: RLU of MRGPRE at 1.0 µM in the […] PRESTO-Tango GPCRome screen
[22] = target: Neuromedin-K receptor (Homo sapiens) (UniProt P29371); assay: RLU of TACR3 at 1.0 µM in the […] PRESTO-Tango GPCRome screen
Chain of Neuromedin-K receptor (Homo sapiens) (P29371 whole entry): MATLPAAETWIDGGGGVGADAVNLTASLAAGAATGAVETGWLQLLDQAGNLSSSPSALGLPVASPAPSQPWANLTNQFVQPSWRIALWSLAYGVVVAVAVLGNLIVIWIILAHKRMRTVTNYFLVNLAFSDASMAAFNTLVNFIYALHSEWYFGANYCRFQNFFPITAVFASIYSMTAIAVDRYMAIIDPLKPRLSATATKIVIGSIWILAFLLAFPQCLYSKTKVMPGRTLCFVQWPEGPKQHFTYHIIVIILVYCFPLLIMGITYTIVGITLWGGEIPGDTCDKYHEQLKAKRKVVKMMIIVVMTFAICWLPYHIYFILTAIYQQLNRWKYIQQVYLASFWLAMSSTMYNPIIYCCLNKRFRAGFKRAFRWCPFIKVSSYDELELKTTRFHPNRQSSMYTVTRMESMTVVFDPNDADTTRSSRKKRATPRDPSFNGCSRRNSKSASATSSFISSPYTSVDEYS

[23] = target: Adhesion G-protein coupled receptor D1 (Homo sapiens) (UniProt Q6QNK2); assay: RLU of GPR133 at 1.0 µM in the […] PRESTO-Tango GPCRome screen
[24] = target: B2 bradykinin receptor (Homo sapiens) (UniProt P30411); assay: RLU of BDKRB2 at 1.0 µM in the […] PRESTO-Tango GPCRome screen
[25] = target: Metabotropic glutamate receptor 5 (Homo sapiens) (UniProt P41594); assay: RLU of GRM5 at 1.0 µM in the Aequorin PRESTO-Tango GPCRome screen
Chain of Metabotropic glutamate receptor 5 (Homo sapiens) (P41594 21-1212 limits assumed): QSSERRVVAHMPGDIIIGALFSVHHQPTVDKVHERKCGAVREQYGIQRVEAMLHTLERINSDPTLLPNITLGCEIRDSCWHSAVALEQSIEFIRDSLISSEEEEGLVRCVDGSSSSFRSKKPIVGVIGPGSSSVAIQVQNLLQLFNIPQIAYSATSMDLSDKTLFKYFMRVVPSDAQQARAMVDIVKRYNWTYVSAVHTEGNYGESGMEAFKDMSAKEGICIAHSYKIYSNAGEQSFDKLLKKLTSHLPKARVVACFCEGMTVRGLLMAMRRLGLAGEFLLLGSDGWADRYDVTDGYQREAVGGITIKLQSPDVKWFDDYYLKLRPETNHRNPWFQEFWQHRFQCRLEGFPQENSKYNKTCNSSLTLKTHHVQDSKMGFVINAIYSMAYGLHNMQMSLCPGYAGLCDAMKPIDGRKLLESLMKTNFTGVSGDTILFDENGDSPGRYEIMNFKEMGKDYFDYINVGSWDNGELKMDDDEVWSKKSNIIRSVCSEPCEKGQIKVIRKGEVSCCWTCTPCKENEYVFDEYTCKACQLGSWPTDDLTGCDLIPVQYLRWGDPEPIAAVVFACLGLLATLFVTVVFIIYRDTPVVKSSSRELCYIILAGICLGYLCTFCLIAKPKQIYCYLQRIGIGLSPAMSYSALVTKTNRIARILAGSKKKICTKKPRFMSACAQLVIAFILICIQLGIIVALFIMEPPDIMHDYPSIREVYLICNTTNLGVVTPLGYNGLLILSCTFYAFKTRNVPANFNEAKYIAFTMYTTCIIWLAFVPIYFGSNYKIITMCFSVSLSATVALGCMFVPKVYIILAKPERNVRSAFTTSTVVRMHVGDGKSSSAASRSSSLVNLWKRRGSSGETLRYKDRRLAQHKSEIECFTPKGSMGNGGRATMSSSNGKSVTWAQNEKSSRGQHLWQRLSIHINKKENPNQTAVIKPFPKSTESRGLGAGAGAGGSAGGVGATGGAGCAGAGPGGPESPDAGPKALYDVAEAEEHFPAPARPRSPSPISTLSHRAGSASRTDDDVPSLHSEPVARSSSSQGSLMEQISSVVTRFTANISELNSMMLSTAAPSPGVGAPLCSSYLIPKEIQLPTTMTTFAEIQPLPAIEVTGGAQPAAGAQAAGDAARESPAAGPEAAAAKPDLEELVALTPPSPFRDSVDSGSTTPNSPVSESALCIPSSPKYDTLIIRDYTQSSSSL

[26] = target: Sphingosine 1-phosphate receptor 3 (Homo sapiens) (UniProt Q99500); assay: RLU of S1PR3 at 1.0 µM in the […] PRESTO-Tango GPCRome screen
[27] = target: G-protein coupled bile acid receptor 1 (Homo sapiens) (UniProt Q8TDU6); assay: RLU of GPBA at 1.0 µM in the […] PRESTO-Tango GPCRome screen
[28] = target: Alpha-2B adrenergic receptor (Homo sapiens) (UniProt P18089); assay: RLU of ADRA2B at 1.0 µM in the […] PRESTO-Tango GPCRome screen
[29] = target: Lysophosphatidic acid receptor 5 (Homo sapiens) (UniProt Q9H1C0); assay: RLU of LPAR5 at 1.0 µM in the […] PRESTO-Tango GPCRome screen
[30] = target: Hydroxycarboxylic acid receptor 2 (Homo sapiens) (UniProt Q8TDS4); assay: RLU of HCA2 at 1.0 µM in the Aequorin PRESTO-Tango GPCRome screen
[31] = target: G-protein coupled receptor 83 (Homo sapiens) (UniProt Q9NYM4); assay: RLU of GPR83 at 1.0 µM in the […] PRESTO-Tango GPCRome screen
Chain of G-protein coupled receptor 83 (Homo sapiens) (Q9NYM4 whole entry): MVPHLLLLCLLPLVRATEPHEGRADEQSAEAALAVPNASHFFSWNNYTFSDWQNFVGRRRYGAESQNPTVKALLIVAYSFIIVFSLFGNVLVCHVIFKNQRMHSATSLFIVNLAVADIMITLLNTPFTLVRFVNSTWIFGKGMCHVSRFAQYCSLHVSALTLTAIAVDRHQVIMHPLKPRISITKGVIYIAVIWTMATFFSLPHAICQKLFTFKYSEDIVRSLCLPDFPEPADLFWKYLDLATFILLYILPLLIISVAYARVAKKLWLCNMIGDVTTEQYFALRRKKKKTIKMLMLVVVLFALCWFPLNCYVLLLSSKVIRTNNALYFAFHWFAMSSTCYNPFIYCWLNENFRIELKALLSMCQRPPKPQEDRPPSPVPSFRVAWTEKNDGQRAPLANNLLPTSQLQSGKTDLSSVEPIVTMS

[32] = target: Melanocortin receptor 4 (Homo sapiens) (UniProt P32245); assay: RLU of MC4R at 1.0 µM in the […] PRESTO-Tango GPCRome screen
Chain of Melanocortin receptor 4 (Homo sapiens) (P32245 whole entry): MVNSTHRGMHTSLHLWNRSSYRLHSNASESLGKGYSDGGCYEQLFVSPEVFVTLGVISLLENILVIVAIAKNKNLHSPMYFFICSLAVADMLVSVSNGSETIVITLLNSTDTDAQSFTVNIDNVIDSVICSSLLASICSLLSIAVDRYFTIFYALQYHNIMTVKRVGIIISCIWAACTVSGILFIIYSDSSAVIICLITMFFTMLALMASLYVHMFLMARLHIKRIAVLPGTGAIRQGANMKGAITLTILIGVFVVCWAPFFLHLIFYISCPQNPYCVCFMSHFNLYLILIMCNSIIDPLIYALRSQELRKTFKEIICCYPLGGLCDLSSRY

[33] = target: Neuropeptide FF receptor 1 (Homo sapiens) (UniProt Q9GZQ6); assay: RLU of NPFF1 at 1.0 µM in the […] PRESTO-Tango GPCRome screen
Chain of Neuropeptide FF receptor 1 (Homo sapiens) (Q9GZQ6 whole entry): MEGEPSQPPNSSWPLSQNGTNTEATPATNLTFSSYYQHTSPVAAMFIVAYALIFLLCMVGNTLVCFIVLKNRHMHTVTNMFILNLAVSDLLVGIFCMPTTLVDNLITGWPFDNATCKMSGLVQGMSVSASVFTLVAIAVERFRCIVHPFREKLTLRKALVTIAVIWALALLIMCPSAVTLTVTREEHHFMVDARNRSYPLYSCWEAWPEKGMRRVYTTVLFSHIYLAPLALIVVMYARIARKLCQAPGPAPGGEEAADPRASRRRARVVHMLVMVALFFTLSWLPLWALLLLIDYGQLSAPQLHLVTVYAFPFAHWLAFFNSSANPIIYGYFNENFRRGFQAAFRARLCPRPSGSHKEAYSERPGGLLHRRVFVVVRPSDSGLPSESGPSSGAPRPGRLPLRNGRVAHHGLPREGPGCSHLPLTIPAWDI

[34] = target: Probable G-protein coupled receptor 141 (Homo sapiens) (UniProt Q7Z602); assay: RLU of GPR141 at 1.0 µM in the […] PRESTO-Tango GPCRome screen
[35] = target: fMet-Leu-Phe receptor (Homo sapiens) (UniProt P21462); assay: RLU of FPR1 at 1.0 µM in the […] PRESTO-Tango GPCRome screen

RLU [1]: 1400
RLU [2]: -1390
RLU [3]: -471
RLU [4]: -946
RLU [5]: -663
RLU [6]: -4690
RLU [7]: -116
RLU [8]: 856
RLU [9]: 868
RLU [10]: -4100
RLU [11]: -60.1
RLU [12]: 6260
RLU [13]: 410
RLU [14]: 2710
RLU [15]: 466
RLU [16]: -4860
RLU [17]: 86500
RLU [18]: 2920
RLU [19]: 2940
RLU [20]: -6500
RLU [21]: -3210
RLU [22]: 550
RLU [23]: -2660
RLU [24]: 892
RLU [25]: -10100
RLU [26]: -1650
RLU [27]: 275
RLU [28]: 17900
RLU [29]: 471
RLU [30]: -133
RLU [31]: 834
RLU [32]: -2110
RLU [33]: 4030
RLU [34]: 2790
RLU [35]: 3270
SMILES: CCCCC(=O)N1CC2(C1)CN(c1ccccc1-c1nnn[nH]1)C2
